Results reported in patent US4007282A, “Lowering lipid and sugar levels in the blood with a bis(4-hydroxyphenyl)alkanoic acid or ester thereof” (Hoechst Aktiengesellschaft, priority 1972, dated 1977).
Read-outs that look alike come from different tables or passages of the source.

Experiments:
[1] = test system: hypertriglyceridemia induced by carbohydrates in male rats; assay: Action on the hypertriglyceridemia induced by carbohydrates (fructose) in male rats; format: in vivo; details: Rattus norvegicus, 72 h, 3-day oral pre-treatment, vs untreated control, read-out: Change in percentage of hypertriglyceridemia induced by carbohydrates
in vivo = details: mouse, po
normolipemic rats = assay: Reduction of serum lipid values in normolipemic rats (8 days oral); format: in vivo, rat; details: 8 doses, male rats; for serum cholesterol, change in percentage (A: referred to the initial value) / serum triglyceride, change in percentage (A: referred to the initial value): column A; for serum cholesterol, change in percentage (B: referred to the untreated control group) / serum triglyceride, change in percentage (B: referred to the untreated control group): column B
Method: 1. Male rats having a normal serum lipid content were treated for eight days with different daily doses mentioned in Table 1. The values given in that Table stand for a change in the serum concentrations of certain lipid classes. The doses administered per os by means of an esophageal sound were 100, 30 and 10 mg/kg/day. Generally, prior to and after the treatment, blood samples were taken and the concentration of cholesterol in the serum was determined according to the method of Lauber and Richterich and that of triglycerides according to the method of Eggstein and Kreutz. In the examples of the following Table 1, the changes in the serum lipid values due to the treatment with the substances of the invention are defined as follows:
a. The changes in percent in the final value of the treated group, referred to the initial value of the treated group, the initial value being 100 percent, and
b. the change in the final value of the treated group, referred to the final value of an accompanying untreated control group, the untreated control group's value being defined as 100 percent. Thus, the value given in columns A is the change in percentage referred to the initial value, whereas the value given in columns B is the change in percentage of the treated group, referred to the untreated control group.

[2] = test system: dietetic-medicamentous hyperlipemia of male rats; assay: Action on the dietetic-medicamentous hyperlipemia of male rats; format: in vivo; details: Rattus norvegicus, po, 192 h, 100 mg/kg/day p.o., 8 days, male rats on cholesterol diet
Excerpt: All the animals were fed with a diet food containing 2% of cholesterol, 2% of sodium cholate, 0.3% of methyl-thiouracil, 20% of coco fat and 44% of cane sugar. The serum lipid concentration of the animals treated with the compounds of the invention was compared to that of an untreated control group on the same diet, which diet causes the serum cholesteral concentration to rise within 1 week to about 10 times the initial value, that of the serum triglycerides to 3 times and that of the phospho-lipids in the serum to 4 times the initial value. The lipid phosphorus was determined according to the method of Messrs. Boehringer Mannheim W. Germany. At the same time as the diet was offered, the compounds of the invention were administered once a day to groups of rats, each containing 10 animals, over a period of 8 days by means of an esophageal sound. The change in percentage in the serum lipid concentration as compared to the control group (diet without active substance) is indicated in Table 2.

mice = details: Table 3
[3] = test system: rats that had been fed fructose doses; assay: Hypoglycemic activity: lowering of the blood sugar level in rats fed fructose doses; format: in vivo, rat; details: 100 mg/kg once a day over 3 days, 24 hours after last administration, vs placebo control group
Method: The hypoglycemic activity of some bis(4-hydroxy-phenyl) alkanoic acid derivatives of formulae I and II could be established by administering once a day, over 3 days, 100 mg of the active compound per kg of test animal to rats that had been fed fructose doses and by taking blood samples 24 hours after the last administration in order to determine the blood sugar level by means of an autoanalyzer.
The lowering of the blood sugar content indicated in following Table 4 refers to a control group treated with placebos (blank doses).

[4] = read-out: serum cholesterol, change in percentage as compared to the control group
[5] = read-out: serum lipid phosphorus, change in percentage as compared to the control group
[6] = read-out: serum triglyceride, change in percentage as compared to the control group

Structure (SMILES) | LD50 (in vivo) [mg/kg] | serum cholesterol, change in percentage (A: referred to the initial value) (normolipemic rats; 100 mg/kg/day p.o.) [%] | serum triglyceride, change in percentage (A: referred to the initial value) (normolipemic rats; 100 mg/kg/day p.o.) [%] | serum cholesterol, change in percentage (B: referred to the untreated control group) (normolipemic rats; 100 mg/kg/day p.o.) [%] | change in vivo at 100 mg/kg [2, 4] [%] | change in vivo at 100 mg/kg [2, 5] [%] | change in vivo at 100 mg/kg [2, 6] [%] | change in vivo at 100 mg/kg [1] [%] | also measured
CCCCNC(=O)CC(C)(c1ccc(O)c(C(C)(C)C)c1)c1ccc(O)c(C(C)(C)C)c1 [Example 13, 3,3-Bis(4'-hydroxy-3'-tert.-butyl-phenyl)butanoic acid n-butylamide] | 8000 |  |  |  |  |  |  |  | change in vivo at 30 mg/kg [1]: -17%
CCOC(=O)C(C)(C)Oc1ccc(Cl)cc1 [Clofibrat, reference compound] |  | -22 | -48 | -15 | 0 | -12 | -27 | -15 | serum triglyceride, change in percentage (B: referred to the untreated control group) (normolipemic rats; 100 mg/kg/day p.o.): -37%; LD50 (in vivo; LD50 mice p.o., mice, Table 3): 2000 to 2500 mg/kg; LD50 (in vivo; p.o. LD50 mice, mice, Table 2): 2000 to 25000 mg/kg
CC(C)(C)c1cc(C(C)(CC(=O)OCCOC(=O)CC(C)(c2cc(Br)c(O)c(C(C)(C)C)c2)c2cc(Br)c(O)c(C(C)(C)C)c2)c2cc(Br)c(O)c(C(C)(C)C)c2)cc(Br)c1O [Example 21, Bis [3,3-bis(4'-hydroxy-3'-tert.-butyl-5'-bromophenyl)butanoic acid] glycol ester] | 4090 |  |  |  |  |  |  |  | 
CC(C)(C)c1cc(C(C)(CCC(=O)OCCOC(=O)CCC(C)(c2ccc(O)c(C(C)(C)C)c2)c2ccc(O)c(C(C)(C)C)c2)c2ccc(O)c(C(C)(C)C)c2)ccc1O [Example 18, Bis [4,4-bis(4'hydroxy-3'-tert.-butyl-phenyl)pentanoic acid] glycol ester] | 4340 | -48 | -51 | -33 | -36 | -37 | -19 | -46 | serum triglyceride, change in percentage (B: referred to the untreated control group) (normolipemic rats; 100 mg/kg/day p.o.): -17%; change in vivo at 30 mg/kg [1]: -34%
CC(C)(C)c1cc(C(C)(CC(=O)OCCOC(=O)CC(C)(c2ccc(O)c(C(C)(C)C)c2)c2ccc(O)c(C(C)(C)C)c2)c2ccc(O)c(C(C)(C)C)c2)ccc1O [Example 16, Bis [3,3-bis(4'-hydroxy-3'-tert.-butyl-phenyl)butanoic acid] glycol ester] |  | -20 | -27 | -21 |  |  |  |  | serum cholesterol, change in percentage (A: referred to the initial value) (normolipemic rats; 30 mg/kg/day p.o.): -10%; serum cholesterol, change in percentage (B: referred to the untreated control group) (normolipemic rats; 30 mg/kg/day p.o.): -15%; serum triglyceride, change in percentage (B: referred to the untreated control group) (normolipemic rats; 30 mg/kg/day p.o.): -32%; serum triglyceride, change in percentage (B: referred to the untreated control group) (normolipemic rats; 100 mg/kg/day p.o.): -26%; change in vivo at 30 mg/kg [1]: -24%
CC(C)(C)c1cc(C(C)(CCC(=O)O)c2ccc(O)c(C(C)(C)C)c2)ccc1O [Example 14, 4,4-Bis(4'-hydroxy-3'-tert.-butyl-phenyl)pentanoic acid] | 4000 |  |  |  | -36 | -25 | -13 |  | 
CCCCOC(=O)CCC(C)(c1ccc(O)c(C(C)(C)C)c1)c1ccc(O)c(C(C)(C)C)c1 [Example 15, 4,4-Bis(4'-hydroxy-3'-tert.-butyl-phenyl)pentanoic acid n-butyl ester] | > 8000 | -37 | -36 | -20 | -57 | -53 | -34 | -28 | serum triglyceride, change in percentage (A: referred to the initial value) (normolipemic rats; 10 mg/kg/day p.o.): -20%; serum triglyceride, change in percentage (B: referred to the untreated control group) (normolipemic rats; 10 mg/kg/day p.o.): -34%; serum cholesterol, change in percentage (A: referred to the initial value) (normolipemic rats; 30 mg/kg/day p.o.): -13%; serum triglyceride, change in percentage (A: referred to the initial value) (normolipemic rats; 30 mg/kg/day p.o.): -32%; serum cholesterol, change in percentage (B: referred to the untreated control group) (normolipemic rats; 30 mg/kg/day p.o.): -10%; serum triglyceride, change in percentage (B: referred to the untreated control group) (normolipemic rats; 30 mg/kg/day p.o.): -37%; serum triglyceride, change in percentage (B: referred to the untreated control group) (normolipemic rats; 100 mg/kg/day p.o.): -13%; LD50 mice p.o. (mice): > 8000 mg/kg
CCCCOC(=O)C(c1ccc(O)c(C(C)(C)C)c1)c1ccc(O)c(C(C)(C)C)c1 [Example 5, Bis(4'-hydroxy-3'-tert.-butyl-phenyl)ethanoic acid n-butyl ester] |  |  |  |  |  |  |  |  | lowering of the blood sugar level in per cent [3]: -30 per cent
CCCCOC(=O)CC(C)(c1ccc(O)c(C)c1)c1ccc(O)c(C)c1 [Example 8, 3,3-bis(4'-hydroxy-3'-methyl-phenyl)butanoic acid n-butyl ester] | > 8000 | -43 | -23 | -26 | -36 | -37 | -39 |  | serum cholesterol, change in percentage (B: referred to the untreated control group) (normolipemic rats; 10 mg/kg/day p.o.): -13%; serum triglyceride, change in percentage (B: referred to the untreated control group) (normolipemic rats; 10 mg/kg/day p.o.): -25%; serum cholesterol, change in percentage (A: referred to the initial value) (normolipemic rats; 30 mg/kg/day p.o.): -14%; serum cholesterol, change in percentage (B: referred to the untreated control group) (normolipemic rats; 30 mg/kg/day p.o.): -16%; serum triglyceride, change in percentage (B: referred to the untreated control group) (normolipemic rats; 30 mg/kg/day p.o.): -22%; LD50 mice p.o. (mice): > 8000 mg/kg
CC(CCC(=O)O)(c1ccc(O)cc1)c1ccc(O)cc1 [Example 19, 4,4-Bis(4'-hydroxy-phenyl)pentanoic acid] |  |  |  |  | -17 | -17 | -28 | -27 | lowering of the blood sugar level in per cent [3]: -20 per cent
CC(C)(C)c1cc(C(C(=O)O)c2ccc(O)c(C(C)(C)C)c2)ccc1O [Example 4, Bis(4'-hydroxy-3'-tert.-butyl-phenyl)ethanoic acid] |  |  |  |  | -29 | -25 | -21 |  | 
CC(C)(C)c1cc(C(C)(CC(=O)O)c2ccc(O)c(C(C)(C)C)c2)ccc1O [Example 2, 3,3-Bis(4'-hydroxy-3'-tert.-butyl-phenyl)butanoic acid] | 2000 |  |  |  | -19 | -9 | -13 |  | change in vivo at 30 mg/kg [1]: -63%
CC(C)(C)c1cc(C(C)(CC(=O)OCCCCCCOC(=O)CC(C)(c2ccc(O)c(C(C)(C)C)c2)c2ccc(O)c(C(C)(C)C)c2)c2ccc(O)c(C(C)(C)C)c2)ccc1O [Example 17, Bis [3,3-bis(4'-hydroxy-3'-tert.-butyl-phenyl)butanoic acid]hexane-diol-1,6ester] | > 8000 |  |  |  |  |  |  | -10 | lowering of the blood sugar level in per cent [3]: -18 per cent
Cc1cc(C(C)(CC(=O)O)c2ccc(O)c(C)c2)ccc1O [Example 1, 3,3-Bis(4'-hydroxy-3'-methyl-phenyl)butanoic acid] |  |  |  |  | -11 | -15 | -18 |  | 
